Measurements taken from ChEMBL document CHEMBL5291721, “A preclinical secondary pharmacology resource illuminates target-adverse drug reaction associations of marketed drugs” (Nat Commun, 2023).

Legend:
Estrogen receptor = biological target: T1, Estrogen receptor (Homo sapiens, UniProt P03372); format: functional
T1 sequence (P03372 whole entry): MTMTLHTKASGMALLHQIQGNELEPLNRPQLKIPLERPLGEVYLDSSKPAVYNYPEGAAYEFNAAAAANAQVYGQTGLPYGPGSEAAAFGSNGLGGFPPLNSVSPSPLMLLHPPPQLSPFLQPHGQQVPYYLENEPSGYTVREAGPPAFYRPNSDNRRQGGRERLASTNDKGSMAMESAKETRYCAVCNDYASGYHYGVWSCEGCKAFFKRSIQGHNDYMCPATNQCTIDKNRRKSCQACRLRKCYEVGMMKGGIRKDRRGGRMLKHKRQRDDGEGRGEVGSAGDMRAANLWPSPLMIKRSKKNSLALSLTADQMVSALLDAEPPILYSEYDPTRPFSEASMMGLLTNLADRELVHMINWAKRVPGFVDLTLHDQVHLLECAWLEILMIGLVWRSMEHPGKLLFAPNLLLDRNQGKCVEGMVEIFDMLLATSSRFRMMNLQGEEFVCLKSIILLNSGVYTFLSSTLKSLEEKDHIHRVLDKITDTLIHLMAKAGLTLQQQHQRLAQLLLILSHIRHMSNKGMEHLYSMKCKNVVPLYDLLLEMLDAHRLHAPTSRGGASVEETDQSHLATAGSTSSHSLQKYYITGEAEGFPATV

[1] = biological target: T2, Corticotropin-releasing factor receptor 2 (Homo sapiens, UniProt Q13324)
T2 sequence (Q13324 whole entry): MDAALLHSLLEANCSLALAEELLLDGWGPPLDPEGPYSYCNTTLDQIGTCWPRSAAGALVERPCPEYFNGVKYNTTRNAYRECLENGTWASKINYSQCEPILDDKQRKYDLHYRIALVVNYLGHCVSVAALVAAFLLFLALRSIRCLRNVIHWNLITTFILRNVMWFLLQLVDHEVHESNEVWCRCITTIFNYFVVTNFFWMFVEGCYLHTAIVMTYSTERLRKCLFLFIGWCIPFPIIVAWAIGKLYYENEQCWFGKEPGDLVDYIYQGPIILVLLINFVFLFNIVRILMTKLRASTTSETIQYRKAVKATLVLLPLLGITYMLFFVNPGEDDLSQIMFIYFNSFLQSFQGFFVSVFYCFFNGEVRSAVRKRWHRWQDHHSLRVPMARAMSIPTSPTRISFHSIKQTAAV

[2] = biological target: T3, 5-hydroxytryptamine receptor 1A (Homo sapiens, UniProt P08908)
T3 sequence (P08908 whole entry): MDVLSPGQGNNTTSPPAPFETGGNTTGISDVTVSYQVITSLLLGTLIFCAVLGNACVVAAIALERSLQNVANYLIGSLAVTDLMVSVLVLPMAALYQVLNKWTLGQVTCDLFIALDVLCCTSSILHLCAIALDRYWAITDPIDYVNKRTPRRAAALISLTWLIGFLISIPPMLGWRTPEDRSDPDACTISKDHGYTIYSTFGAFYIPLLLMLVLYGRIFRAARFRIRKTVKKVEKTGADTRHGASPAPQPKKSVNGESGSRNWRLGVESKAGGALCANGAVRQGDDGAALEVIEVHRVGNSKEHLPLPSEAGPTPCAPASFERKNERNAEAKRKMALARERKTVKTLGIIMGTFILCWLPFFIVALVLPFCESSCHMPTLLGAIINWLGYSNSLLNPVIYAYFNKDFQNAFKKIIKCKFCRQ

[3] = biological target: T4, Muscarinic acetylcholine receptor M2 (Homo sapiens, UniProt P08172)
T4 sequence (P08172 whole entry): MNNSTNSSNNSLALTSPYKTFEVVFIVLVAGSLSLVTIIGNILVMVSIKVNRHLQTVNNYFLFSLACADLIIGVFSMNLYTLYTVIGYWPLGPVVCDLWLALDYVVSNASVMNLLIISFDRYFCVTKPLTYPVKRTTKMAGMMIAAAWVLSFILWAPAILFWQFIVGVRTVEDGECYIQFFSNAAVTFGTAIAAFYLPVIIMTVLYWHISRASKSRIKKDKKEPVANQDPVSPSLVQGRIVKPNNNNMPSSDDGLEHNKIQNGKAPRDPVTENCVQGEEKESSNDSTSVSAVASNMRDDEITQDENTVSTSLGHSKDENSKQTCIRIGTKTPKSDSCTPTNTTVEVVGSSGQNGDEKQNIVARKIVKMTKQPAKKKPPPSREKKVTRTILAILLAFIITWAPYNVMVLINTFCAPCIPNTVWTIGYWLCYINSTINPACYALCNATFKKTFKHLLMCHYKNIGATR

Thromboxane A2 receptor = biological target: T5, Thromboxane A2 receptor (Homo sapiens, UniProt P21731); format: functional
T5 sequence (P21731 whole entry): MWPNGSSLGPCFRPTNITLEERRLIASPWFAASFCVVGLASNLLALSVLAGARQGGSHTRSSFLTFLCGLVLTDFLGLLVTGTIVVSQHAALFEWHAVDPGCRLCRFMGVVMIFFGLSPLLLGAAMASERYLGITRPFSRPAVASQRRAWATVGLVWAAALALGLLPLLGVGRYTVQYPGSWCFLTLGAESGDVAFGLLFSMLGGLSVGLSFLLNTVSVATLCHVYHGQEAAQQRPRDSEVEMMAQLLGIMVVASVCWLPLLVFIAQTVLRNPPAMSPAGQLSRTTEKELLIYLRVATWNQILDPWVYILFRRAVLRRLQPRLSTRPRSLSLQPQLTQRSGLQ
Also: assay procedure not described here.

CN(C)CCC=C1c2ccccc2C(C)(C)c2ccccc21
AC50 (Estrogen receptor): > 30 µM

CCOC(=O)[C@H](CCc1ccccc1)N[C@@H](C)C(=O)N1[C@H](C(=O)O)C[C@@H]2CCC[C@@H]21
AC50 [1]: > 30 µM | AC50 [2]: > 10 µM | AC50 [3]: > 10 µM

CC[C@H]1OC(=O)[C@H](C)[C@@H](O[C@H]2C[C@@](C)(OC)[C@@H](O)[C@H](C)O2)[C@H](C)[C@@H](O[C@@H]2O[C@H](C)C[C@H](N(C)C)[C@H]2O)[C@](C)(O)C[C@@H](C)CN(C)[C@H](C)[C@@H](O)[C@]1(C)O [AZITHROMYCIN]
AC50 [1]: > 30 µM | AC50 [2]: > 10 µM | AC50 [3]: > 10 µM

NCC(CC(=O)O)c1ccc(Cl)cc1 (stereo not drawn) [BACLOFEN]
AC50 [1]: > 30 µM | AC50 (Thromboxane A2 receptor): > 30 µM | AC50 [2]: > 10 µM | AC50 [3]: > 10 µM

CC(C)C[C@H]1C(=O)N2CCC[C@H]2[C@]2(O)O[C@](NC(=O)[C@@H]3C=C4c5cccc6[nH]c(Br)c(c56)C[C@H]4N(C)C3)(C(C)C)C(=O)N12 [BROMOCRIPTINE]
AC50 [1]: > 30 µM | AC50 (Thromboxane A2 receptor): > 30 µM | AC50 [2]: 0.319 µM | AC50 [3]: > 10 µM

Cc1ccc(-c2cc(C(F)(F)F)nn2-c2ccc(S(N)(=O)=O)cc2)cc1 [CELECOXIB]
AC50 [1]: > 30 µM | AC50 [2]: > 10 µM | AC50 [3]: > 10 µM

CC1=C(C(=O)O)N2C(=O)[C@@H](NC(=O)[C@H](N)c3ccccc3)[C@H]2SC1 [CEPHALEXIN ANHYDROUS]
AC50 [1]: > 30 µM | AC50 [2]: > 10 µM

CN(C)CCC(c1ccc(Cl)cc1)c1ccccn1 (stereo not drawn) [CHLORPHENIRAMINE]
AC50 [1]: > 30 µM | AC50 [2]: > 10 µM | AC50 [3]: 5.52 µM

O=C1Nc2ccc(Cl)cc2[C@@](C#CC2CC2)(C(F)(F)F)O1 [EFAVIRENZ]
AC50 (Estrogen receptor): > 30 µM

O=C(OCC(O)CO)c1ccccc1Nc1ccnc2cc(Cl)ccc12 (stereo not drawn) [GLAFENINE]
AC50 (Estrogen receptor): > 30 µM | AC50 (Thromboxane A2 receptor): > 30 µM

C[C@]12CCC(=O)C=C1CC[C@@H]1[C@@H]2[C@@H](O)C[C@@]2(C)[C@H]1CC[C@]2(O)C(=O)CO [HYDROCORTISONE]
AC50 [1]: > 30 µM | AC50 [2]: > 10 µM | AC50 [3]: > 10 µM

CCC(C)n1ncn(-c2ccc(N3CCN(c4ccc(OCC5COC(Cn6cncn6)(c6ccc(Cl)cc6Cl)O5)cc4)CC3)cc2)c1=O (stereo not drawn) [ITRACONAZOLE]
AC50 [1]: > 30 µM | AC50 [2]: > 10 µM | AC50 [3]: > 10 µM

c1ccc([C@H]2CN3CCSC3=N2)cc1 [LEVAMISOLE]
AC50 (Estrogen receptor): > 30 µM | AC50 (Thromboxane A2 receptor): > 30 µM

C[C@H]1CNCCc2ccc(Cl)cc21 [LORCASERIN]
AC50 (Estrogen receptor): > 30 µM

CN1C(C(=O)Nc2ccccn2)=C(O)c2sc(Cl)cc2S1(=O)=O [LORNOXICAM]
AC50 [2]: > 10 µM

C[C@@H](O)[C@H]1C(=O)N2C(C(=O)O)=C(S[C@@H]3CN[C@H](C(=O)N(C)C)C3)[C@H](C)[C@H]12 [MEROPENEM]
AC50 (Thromboxane A2 receptor): > 300 µM

CNC1Cc2ccccc2N(C)c2ccccc21 (stereo not drawn) [METAPRAMINE]
AC50 (Estrogen receptor): > 30 µM | AC50 (Thromboxane A2 receptor): > 30 µM

COc1ccc(CC(C)(C)NC[C@H](O)c2cc(O)cc3c2OCC(=O)N3)cc1 [OLODATEROL]
AC50 (Estrogen receptor): > 30 µM

CCCN1C[C@H](CSC)C[C@@H]2c3cccc4[nH]cc(c34)C[C@H]21 [PERGOLIDE]
AC50 [1]: > 30 µM | AC50 (Estrogen receptor): > 30 µM | AC50 [3]: > 10 µM

C1CCC(C(CC2CCCCN2)C2CCCCC2)CC1 (stereo not drawn) [PERHEXILINE]
AC50 (Estrogen receptor): > 30 µM

c1cnc(N2CCN(Cc3ccc4c(c3)OCO4)CC2)nc1 [PIRIBEDIL]
AC50 (Estrogen receptor): > 30 µM | AC50 (Thromboxane A2 receptor): > 30 µM

Cc1c(C(=O)NN2CCCCC2)nn(-c2ccc(Cl)cc2Cl)c1-c1ccc(Cl)cc1 [RIMONABANT]
AC50 [1]: > 30 µM | AC50 (Estrogen receptor): > 10 µM | AC50 (Thromboxane A2 receptor): > 30 µM | AC50 [2]: > 10 µM

CS(=O)(=O)c1ccc(C2=C(c3ccccc3)C(=O)OC2)cc1 [ROFECOXIB]
AC50 [1]: > 30 µM | AC50 [2]: > 10 µM | AC50 [3]: > 10 µM

CO[C@H]1C[C@@H]2CC[C@@H](C)[C@@](O)(O2)C(=O)C(=O)N2CCCC[C@H]2C(=O)O[C@H]([C@H](C)C[C@@H]2CC[C@@H](O)[C@H](OC)C2)CC(=O)[C@H](C)/C=C(\C)[C@@H](O)[C@@H](OC)C(=O)[C@H](C)C[C@H](C)/C=C/C=C/C=C/1C [SIROLIMUS]
AC50 [1]: > 30 µM | AC50 [2]: > 10 µM

Cc1cn([C@H]2C=C[C@@H](CO)O2)c(=O)[nH]c1=O [STAVUDINE]
AC50 [1]: > 30 µM | AC50 (Thromboxane A2 receptor): > 30 µM | AC50 [2]: > 10 µM | AC50 [3]: > 10 µM

Cn1nnc2c(C(N)=O)ncn2c1=O [TEMOZOLOMIDE]
AC50 [1]: > 30 µM | AC50 (Estrogen receptor): > 30 µM | AC50 (Thromboxane A2 receptor): > 30 µM | AC50 [2]: > 10 µM | AC50 [3]: > 10 µM

Clc1ccc2nsnc2c1NC1=NCCN1 [TIZANIDINE]
AC50 [1]: > 30 µM | AC50 [2]: > 10 µM | AC50 [3]: > 10 µM

O=C(O[C@H]1C[C@H]2CC[C@@H](C1)[N+]21CCCC1)C(O)(c1ccccc1)c1ccccc1 [TROSPIUM]
AC50 [3]: 0.026 µM

N[C@@H]1[C@H]2CN(c3nc4c(cc3F)c(=O)c(C(=O)O)cn4-c3ccc(F)cc3F)C[C@@H]12 [TROVAFLOXACIN]
AC50 (Estrogen receptor): > 30 µM | AC50 (Thromboxane A2 receptor): > 30 µM

Cc1cn([C@H]2C[C@H](N=[N+]=[N-])[C@@H](CO)O2)c(=O)[nH]c1=O [ZIDOVUDINE]
AC50 [1]: > 30 µM | AC50 [2]: > 10 µM | AC50 [3]: > 10 µM
